Assays:
[1] = system: Bovine Retinal Endothelial Cells (BRE); assay: VEGF-mediated survival/proliferation of BRE cells (WST1); assay type: cell-based
Protocol: (§1) The anti-angiogenic activities of the peptides were tested by measuring the level of inhibition of VEGF and bFGF mediated survival/proliferation of Bovine Retinal Endothelial Cells (BRE), Human Dermal Microvasculature Endothelial Cells, and Human Umbilical Vein Endothelial Cells, all of which are standard cell lines used to test anti-angiogenic compounds.
Bovine retinal endothelial (BRE) cells were maintained in Cambrex EG2 media. For non-adherent cell assays, on day one cells were starved for either 6 hours or overnight, then trypsinized and plated in 96-well plates in 100 μl of Optimem plus 1% fetal bovine serum (FBS). One hundred μl of Optimem plus 1% FBS was added to the wells containing, where appropriate, VEGF to a final concentration of 25 ng/ml, and the various peptides to final concentrations as described. For adherent cells, cells were plated in 96-well plates in complete media, allowed to adhere overnight, washed in starvation media (Optimem plus 1% FBS) and then starved during the day. At the end of the day, 100 μl of Optimem plus 1% FBS was added to the wells containing, where appropriate, VEGF to a final concentration of 25 ng/ml and the various peptides to final concentrations as described.
(§2) In all cases, after 72 hours incubation, the amount of live cells in each well was measured with the WST1 assay (Roche).

[2] = Biological activity of D-amino acid versions of ST100,038 (assay not specified); conditions: ST100,045 tested against ST100,059 and a control
Protocol: D-amino acid peptides can be made by generating a D-amino acid peptide with the same sequence as a L-amino acid peptide or by preparing a retro inverso form of a peptide. ST100,045 (SEQ ID NO.: 31) has the same sequence as ST100,038 (SEQ ID NO.: 29) was tested against ST100,059 (SEQ ID NO.: 30) which is the retro inverso version of ST100,038 and a control.

[3] = system: B16 melanoma tumor; assay: Subcutaneous B16 melanoma tumor model in vivo; parameters: species or system mouse; conditions: vs untreated controls
Protocol: Because of the importance of the angiogenic process for tumorigenesis, miniproteins as described herein, were hypothesized to show good anti-tumor activity. The peptides of the invention were tested in an in vivo model of anti-tumor activity. This model compares the growth of sub cutaneous B16 melanoma tumor in vivo either untreated or treated with various amount of miniproteins described in this application. This model is widely accepted in the art as a model to test the anti-tumor activity of compounds that inhibit tumor growth because they have anti-angiogenic activity.
Male C57BL/6 mice were obtained with a mean body weight of 20±2 g. Mouse B16-F1 melanoma cells were implanted subcutaneously (5×10^5 cell per animal). Peptides (formulated in water) were administered ip daily at the amount indicated starting the day after cells injection. In general, tumors became palpable around 9 days after injection of cells. Tumor were then measured every 2 days.

[4] = system: binding of radiolabeled VEGF to endothelial cells; assay: Inhibition of binding of radiolabeled VEGF to endothelial cells; conditions: concentration of 30 μM; for inhibition of VEGF binding: FIG. 7; for VEGF binding inhibition: legend of FIG. 7
Source text: The activity of the peptides SEQ ID NO.: 1 and SEQ ID NO.: 2 in blocking the binding of radiolabeled VEGF to endothelial cells is shown in FIG. 7.

[5] = Heparin binding activity by liquid chromatography on Hi Trap Heparin HP column (NaCl elution); conditions: step gradient 500-1000 mM NaCl in 10 mM NaH2PO4 pH 7
Source text: Liquid chromatography was used to determine the relative levels of heparin binding activity of the individual heparin binding domains and of the anti-angiogenic miniproteins that contains them. In this assay, the strength of the heparin binding activity is proportional to the amount of NaCl that is required to elute the peptide bound to the heparin column. Peptides with low binding activity are eluted with lower NaCl concentration, whereas higher concentrations of NaCl are required for peptides with higher binding activity.
Hi Trap Heparin HP column (1 ml, Amersham Biosciences) was equilibrated with 10 column volumes (CV) of equilibration (EQ) buffer=10 mM NaH2PO4pH 7. All buffers were loaded onto columns via syringes. 500 μl fractions are collected (flow rate=1 ml/minute). 500 μg of peptide (1 mg/ml, resuspended in EQ buffer) was added to each column and the flow through was collected for analysis. The columns were then washed with 3 CV of EQ buffer. Peptides are then eluted with a step gradient of 500, 625, 750, 875 mM NaCl in EQ buffer, 2 CV per each step. A final step of 3 CV of 1000 mM NaCl in EQ buffer was collected in 500 μl fractions. The A210 nm was measured using EQ and elution buffers as blanks.

[6] = system: mouse leukemia L1210 cells; assay: Tumor cell proliferation (WST-1), L1210; assay type: cell-based; conditions: FIG. 11
Protocol: Peptides to be tested were prepared at a stock concentration of 10 mM in sterile phosphate buffered saline. Cancer cell lines obtained from the American Type Culture Collection (MG-63, HT1080, A498, BxPC3, 786-0, PC-3, B16F1, B16F10, P388D1, Jurkat, MOLT4, THP-1, U-937, L1210, RPMI 8226, NCI H929, U266B1, K562) were cultured under appropriate conditions as described in the literature. Cell culture media and reagents were obtained from ATCC (Manassas, Va.), Invitrogen (Carlsbad, Calif.) or Mediatech (Herndon, Va.). Exponentially growing cultures were used for cell proliferation assays. Adherent cells were plated at a concentration of 100000 cells per milliter in growth media overnight (18-24 h) and treated the next day in a low serum media (growth media with 1% FBS for MG-63, HT1080, A498, BxPC3, PC-3, B16F1, B16F10. 786-0 cells were treated in media with 5% FBS). Suspension cell lines (P388D1, Jurkat, MOLT4, THP-1, U-937, L1210, RPMI 8226, NCI H929, U266B1, and K562) were diluted to a concentration of 100,000 cells per ml and treated on the same day with peptides. Peptides were diluted in treatment media and cells were treated for 48 or 72 hours depending on the cell line. Each dose was tested in triplicate for each experiment, and experiments were repeated for a minimum of three discrete times. After incubation, the relative number of cells was determined using WST-1 (Roche Applied Science). A 9.5 μl aliquot of WST-1 was added to each well. The plate was immediately read at 440 nm using a Bio-Tek PowerWave XS microplate reader, incubated for 2-3 hours at 37° C. and then read again. Cell proliferation was determined as the percent of the control cell proliferation. The absorbance of each well at time 0 was subtracted from the value of the final reading. Afterwards the blank values were averaged and subtracted from each test and control value. Finally, each test absorbance was divided by the average of the control absorbances and multiplied by 100 to obtain the percent of control. […]

[7] = system: L1210 murine leukemia; assay: L1210 murine leukemia intravenous model in vivo; parameters: species or system mouse; conditions: dosed IP, DBA/2 mice, FIG. 15a
Protocol: Antitumor activity of test peptides, administered intraperitoneally (IP), were evaluated against L1210 murine leukemia cells implanted intravenously (IV) in DBA/2 mice.
Studies generally consisted of randomly-assigned groups of 8 mice per group, which were inoculated IV with 1×10^5 cells per mouse from an in vivo leukemia cell line. In addition to groups tested with test peptides, studies usually included a vehicle-treated control group and a positive control group treated with an agent known to be active in the L1210 leukemia model. Starting one day after tumor inoculation (inoculation day defined as Day 0), mice were treated IP with either vehicle or test peptides in various schedules. Generally this consisted of treatment every other day for approximately 1 week (e.g., Days 1, 3, 5 and 7). A positive agent (e.g., cyclophosphamide) was usually given as a single IP injection on Day 1. All dosing solutions were prepared on each day of treatment. Survival was monitored daily and body weights were measured twice weekly. Anti-tumor activity was assessed by the increase in lifespan of the treated groups in comparison to the vehicle-treated control group. Studies with the L1210 leukemia model were limited to 30 days.

[8] = system: Human Umbilical Vein Endothelial Cells; assay: bFGF-mediated survival/proliferation of human umbilical vein endothelial cells (WST1); assay type: cell-based; conditions: for potency in blocking bFGF stimulation: compared with ST100,068, FIG. 6; for inhibition of bFGF mediated survival: comparison of several peptides, FIG. 10
Protocol: as §1
Human umbilical cord endothelial (HUVEC) cells were maintained in Cambrex EGM-2MV media. On day one, cells were starved overnight in 1% FBS in M200 media (Cascade Biologicals). The morning after, the media were replaced with serum-free media (control) or media containing 25 ng/ml of human VEGF165 and the various peptides to final concentrations as described.
as §2

For “ATSLPPHSSQSP (listed as Homo sapiens) [ST100,038]”, the “Concentrations that completely abolished the VEGF-induced increase in WST-1 value” ([1]; VEGF 25 ng/ml, 72 hours, FIG. 4) was “above 40 μM”.

With “ATSLPPHSSQSP (listed as Homo sapiens) [ST100,045]” the biologically active [2] was “Only the retro inverso form of ST100,038, (ST100,059; SEQ ID NO.: 30) was found to be biologically active”.

With “ATSLPPHSSQSPGGGPPAARGRRAARGRR (listed as Homo sapiens) [ST100,062]” the “inhibition of tumor growth” value ([3]; 20 mg/kg daily IP, FIG. 12) was “clearly inhibit tumor growth”.

For “PYAGRGDSVVYGLGGGPGAARGRRAARGRR [ST100,033]”, the “inhibition of VEGF binding” value [4] was ~100% and the VEGF binding inhibition [4] was “completely abolished VEGF binding”.

With “RAAKKRKRAAKKRARAAKKRLGYVVSDGRGDYP (RAAKKRARAAKKRARAAKKRLGYVVSDGRGDYP; listed as Homo sapiens) [ST100,079]” the “[NaCl] for elution” value [5] was 1000 mM.

In the case of “RKKAARARKKAARARKKAARRLGYVVSDGRGDYP (listed as Homo sapiens) [ST100,081]”, the “[NaCl] for elution” value [5] is reported as 1000 mM.

With “RKRAALRARKRAARARKRAARR (RKRAARARKRAARARKRAARR; listed as Homo sapiens) [ST100,083]” the “[NaCl] for elution” value [5] was 1100 mM.

With “RLGYVVSDGRGDYP (listed as Homo sapiens) [ST100,077]” the “blocked cell proliferation or induced cell death” value [6] was “Neither”.

For “RLGYVVSDGRGDYPKKKRRGRAARRGRAA [ST100,065]”, the “mice (cured mice) survived longer than 30 days” value [7] was “Sixty to eighty percent”, the survival [7] was “statistically significant increases in survival” and the “[NaCl] for elution” value [5] was 750 mM.

For “RRGRAAKKKRRGRAAKKK (listed as Homo sapiens) [ST100,082]”, the “[NaCl] for elution” value [5] was 1000 mM.

With “RRGRAAKKKRRGRAAKKKPSQSSHPPLSTA (listed as Homo sapiens) [ST100,072]” the “potency in blocking bFGF stimulation” value [8] was “more potent in blocking bFGF stimulation” and the “[NaCl] for elution” value [5] was 1000 mM.

With “RRGRAAKKKRRGRAAKKKRLGYVVSDGRGDYP [ST100,074]” the “inhibition of bFGF mediated survival” value [8] was “the most active in inhibiting bFGF stimulation”, the “mice (cured mice) survived longer than 30 days” value [7] was “Sixty to eighty percent” and the survival [7] was “statistically significant increases in survival”. For the same sequence, the “[NaCl] for elution” value [5] was 1000 mM.

With “RRGRAARRGRAAKKK (listed as Homo sapiens) [ST100,078]” the “inhibition of bFGF mediated survival” value [8] was “not as potent” and the “blocked cell proliferation or induced cell death” value [6] was “Neither”.

In the case of “RRGRAARRGRAAKKKPSQSSHPPLSTA (listed as Homo sapiens) [ST100,068]”, the “potency in blocking VEGF stimulation” value ([1]; compared with ST100,059, FIG. 5) is reported as “more potent in blocking VEGF stimulation”, the “inhibition of VEGF stimulation” value ([1]; increasing doses, FIG. 5) is reported as “inhibited with increasing doses” and the “inhibition of tumor growth” value ([3]; 20 mg/kg and 40 mg/kg daily IP, FIG. 13) is reported as “able to inhibit tumor growth”.

In the case of “RRGRAARRGRAARRGRAAKKKPSQSSHPPLSTA (listed as Homo sapiens) [ST100,073]”, the “potency in blocking bFGF stimulation” value [8] is reported as “more potent in blocking bFGF stimulation”, the “inhibition of bFGF mediated survival” value [8] is reported as “the most active in inhibiting bFGF stimulation” and the “[NaCl] for elution” value [5] is reported as 1000 mM. For the same sequence, the “inhibition of tumor growth” value ([3]; 20 mg/kg daily IP, FIG. 14) was “able to inhibit tumor growth”.

For YDGRGDSVVYGLKKKAARGRRAARGRR [ST100,032], the “inhibition of VEGF binding” value [4] was ~100% and the VEGF binding inhibition [4] was “completely abolished VEGF binding”.

From patent US20080207502A1, “Anti-Angiogenic Peptides and Methods of Use Thereof” (SOPHERION THERAPEUTICS, INC., priority 2004, published 2008)
